We go through nine compounds from patent US10106529B2, “Compounds that modulate intracellular calcium” (CalciMedica, Inc., priority 2011, dated 2018).

Structures are written as SMILES. A value given as a limit tells only on which side of the number the result lay.

The subject of one assay is RBL-2H3 cells. The assay is described as follows: Fluorescence-based assay of store-operated calcium entry in RBL-2H3 cells. Type of assay: cell-based, rat. As to conditions: Rattus norvegicus, thapsigargin, inhibition of Upslope of fluorescence after calcium addition, read-out: RBL-2H3 (IC50, μmol). Here is the method:
(§1) Fluorescence-based assays are used for screening the compounds described herein, such as compounds of Formulas (I), (IA), (II), (IIA), (III), (IIIA), (IV), (IVA), (V), (VA), (VI), (VIA), (VII), (VIIA), (VIII), (VIIIA), (IX), (IXA), (X), (XI), (XIA), (XII), or (XIIA) which modulate intracellular calcium.
B. Fluorescence-Based Assay of Store-Operated Calcium Entry in RBL-2H3 Cells.
RBL-2H3 cells are obtained from ATCC and maintained in complete medium with 10% FBS at 37° C./6% CO2.
The day prior to performing the assay, RBL-2H3 cells are plated in 50 μL of complete medium in a 384 well plate. Cells are grown at 37° C./6% CO2 overnight and grow to 50-60% confluence by the next day. On the assay day, 1.5 µM Fluo-4-AM dye (Invitrogen) in complete medium is added and incubated for 1 hour at RT. Cells are washed twice in Ca^2+-free HBSS buffer and 35 μL Ca^2+-free HBSS buffer is added to each well. 10 μL of a test compound prepared in a Ca^2+-free HBSS solution at 4.5× of the desired concentration is added to a well and incubated for 5 minutes at RT. 10 μL of thapsigargin prepared in a Ca^2+-free HBSS solution at 5.5× of the desired concentration (5.5 uM) is added to each well and incubated for an additional 25 minutes. The initial baseline fluorescence signal is measured with a FLIPR^384 (Molecular Devices) plate reader. 5 μL of 12× calcium in HBSS (12 mM) is added and changes in cellular fluorescence are measured with the FLIPR^384 plate reader. In each well, the change in the fluorescent signal as a function of time due to calcium entry into the cell is determined by calculating the difference between the fluorescent signal measured 7 seconds after calcium addition and the initial baseline fluorescence signal at time zero (t=0). This parameter is designated Upslope. The IC50 value is calculated as the concentration at which 50% of the Upslope is inhibited.

The target in another assay is T1, Orai1/STIM1 (Homo sapiens, UniProt Q96D31).
T1 construct: c-myc (C); expressed in transfected cells; host or cells: HEK-293 cells stably expressing recombinant human STIM1 and Orai1
The assay can be described thus: Fluorescence-based assay of store-operated calcium entry in Orai1/STIM1 stable cells. Type of assay: cell-based. Also noted: key to Orai1/STIM1 (IC50, μmol): A, IC50 < 0.6 μM; B, IC50 = 0.6-1.2 μM; C, IC50 > 1.2 μM; — no fit. As to conditions: HEK-293 cells stably expressing human STIM1 and Orai1, inhibition of Peak-Basal fluorescence signal after calcium addition; for IC50: read-out: Orai1/STIM1 (IC50, μmol).
Text: as §1
A. Fluorescence-Based Assay of Store-Operated Calcium Entry in Orai1/STIM1 Stable Cells.
Cells stably expressing recombinant human STIM1 and Orai1 are generated by transfecting a human Orai1 expression plasmid (pcDNA3.1-Orai1-cmyc) into HEK-293 cells stably overexpressing human STIM1 (Roos et al. 2005 JCB 169(3): 435-445). Colonies of cells stably expressing both STIM1 and Orai1 proteins are selected and then subcloned by limiting dilution. Cells were cultured at 37° C./6% CO2 in complete medium with 10% FBS and appropriate selection markers.
The day prior to performing the assay Orai1/STIM1 stable cells are plated in 50 μL of complete medium at 90-95% confluence in a 384 well plate. Cells are grown at 37° C./6% CO2 overnight. On the day of the assay, 1.5 μM fluo-4-AM (Invitrogen) in complete medium is added to the cells, which are then incubated for 1 hour at RT. Cells are washed once in Ca^2+-free HBSS (Hank's buffered saline solution) and 35 μl of Ca^2+-free HBSS is added to each well. Test compounds are added to wells in a 10 μL Ca^2+-free HBSS solution, prepared at 4.5× the desired final concentration, and incubated for 30 minutes at RT. The initial baseline fluorescence signal is then measured with a FLIPR^384 (Molecular Devices) plate reader. Calcium entry is initiated by adding 5 μl of 10×CaCl2 (10 mM) in HBSS, and changes in cellular fluorescence are measured with the FLIPR^384 plate reader. In each well, the magnitude of the fluorescence signal as a result of calcium entry into the cell is determined by calculating the difference between the peak fluorescence signal measured after calcium addition and the initial baseline fluorescence signal (designated Peak-Basal). IC50 values are typically calculated as the concentration that inhibited 50% of the Peak-Basal signal.

T1 sequence (Q96D31 whole entry): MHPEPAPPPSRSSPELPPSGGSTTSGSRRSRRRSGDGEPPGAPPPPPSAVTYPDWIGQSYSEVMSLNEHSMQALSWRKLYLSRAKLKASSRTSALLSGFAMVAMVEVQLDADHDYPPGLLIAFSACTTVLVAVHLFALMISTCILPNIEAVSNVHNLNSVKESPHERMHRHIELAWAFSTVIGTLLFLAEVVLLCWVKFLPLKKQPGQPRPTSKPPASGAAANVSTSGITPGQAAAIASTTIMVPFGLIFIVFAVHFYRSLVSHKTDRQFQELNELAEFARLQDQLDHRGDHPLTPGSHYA

As to `Cc1c(F)cccc1CNc1ccc(-n2nc(C(F)(F)F)cc2C)cn1` [Compound 122, N-(3-fluoro-2-methylbenzyl)-5-(5-methyl-3-(trifluoromethyl)-1H-pyrazol-1-yl)pyridin-2-amine], the IC50 in the assay on RBL-2H3 cells is less than 0.6 µM. Also, the “Orai1/STIM1 (IC50, μmol)” value at Orai1/STIM1 is reported as “—”.
As to `Cc1cc(C(F)(F)F)nn1-c1ccc(NCc2c(F)cncc2F)nc1` [Compound 124, N-((3,5-difluoropyridin-4-yl)methyl)-5-(5-methyl-3-(trifluoromethyl)-1H-pyrazol-1-yl)pyridin-2-amine], the IC50 in the assay with RBL-2H3 cells was less than 0.6 µM; on Orai1/STIM1 it was 0.6 to 1.2 µM.
As for `Fc1cccc(F)c1CNc1ncc(Oc2ccccc2C(F)(F)F)cn1` [Compound 126, N-(2,6-difluorobenzyl)-5-(2-(trifluoromethyl)phenoxy)pyrimidin-2-amine], the IC50 with RBL-2H3 cells and on Orai1/STIM1 was less than 0.6 µM in each case.
Turning to `COc1cc(F)c(CNc2ncc(-c3cc4c(cc3C)OC(F)(F)O4)cn2)c(F)c1` [Compound 127, N-(2,6-difluoro-4-methoxybenzyl)-5-(2,2-difluoro-6-methylbenzo[d][1,3]dioxol-5-yl)pyrimidin-2-amine], the IC50 in the assay on RBL-2H3 cells and at Orai1/STIM1 was less than 0.6 µM in each case.
In the case of `COc1cc(C)c(-c2cnc(NCc3c(F)cccc3F)nc2)cn1` [Compound 128, N-(2,6-difluorobenzyl)-5-(6-methoxy-4-methylpyridin-3-yl)pyrimidin-2-amine], the IC50 in the assay with RBL-2H3 cells and on Orai1/STIM1 was less than 0.6 µM in each case.
As for `Cc1cc(Cl)ncc1-c1cnc(NCc2c(F)cc(Cl)cc2F)nc1` [Compound 129, N-(4-chloro-2,6-difluorobenzyl)-5-(6-chloro-4-methylpyridin-3-yl)pyrimidin-2-amine], the IC50 with RBL-2H3 cells and at Orai1/STIM1 was less than 0.6 µM each time.
With `Fc1cc(F)c(CNc2ccc(Oc3ccccc3C(F)(F)F)cn2)c(F)c1` [Compound 134], the IC50 in the assay with RBL-2H3 cells and on Orai1/STIM1 was less than 0.6 µM throughout.
As to `Fc1cccc(F)c1CNc1ccc(Oc2ccccc2C(F)(F)F)cn1` [Compound 135], the IC50 in the assay on RBL-2H3 cells and on Orai1/STIM1 was less than 0.6 µM in each case.
Regarding `Cn1nc(C(F)(F)F)cc1-c1ccc(NCc2ccccc2F)nc1N` [Compound 143, N^2-(2-fluorobenzyl)-5-(1-methyl-3-(trifluoromethyl)-1H-pyrazol-5-yl)pyridine-2,6-diamine], the IC50 in the assay with RBL-2H3 cells and at Orai1/STIM1 was less than 0.6 µM throughout.
